From the NIST ThermoML archive (doi:10.1016/j.jct.2008.04.008)

Assay: mn = molality of the nth substance listed, in mol/kg
Settings: Liquid; for speed of sound: Pulse-echo method

[Na+].c1ccc([B-](c2ccccc2)(c2ccccc2)c2ccccc2)cc1 [sodium tetraphenylboron] + CO
Settings | mass density, 283.15 K [kg/m3] | mass density, 288.15 K [kg/m3] | mass density, 293.15 K [kg/m3] | mass density, 298.15 K [kg/m3] | mass density, 303.15 K [kg/m3] | mass density, 308.15 K [kg/m3] | mass density, 313.15 K [kg/m3] | speed of sound, 298.15 K [m/s]
m1 = 0.02864 | 803.855 | 799.183 | 794.505 | 789.813 | 785.107 | 780.377 | 775.618 | –
m1 = 0.03742 | 804.851 | 800.185 | 795.511 | 790.825 | 786.118 | 781.392 | 776.646 | –
m1 = 0.04715 | 805.936 | 801.274 | 796.607 | 791.928 | 787.23 | 782.507 | – | –
m1 = 0.05653 | 806.979 | 802.323 | 797.659 | 792.985 | 788.298 | 783.585 | 778.847 | –
m1 = 0.06567 | 807.991 | 803.338 | 798.679 | 794.015 | 789.33 | 784.622 | 779.888 | 1114.1
m1 = 0.07566 | 809.099 | 804.455 | 799.8 | 795.14 | 790.46 | 785.759 | 781.031 | 1115.7
m1 = 0.09526 | 811.246 | 806.611 | 801.967 | 797.318 | 792.652 | 787.962 | 783.246 | 1119
m1 = 0.1146 | 813.35 | 808.726 | 804.095 | 799.453 | 794.791 | 790.107 | 785.409 | 1122.4
m1 = 0.1339 | 815.434 | 810.82 | 806.2 | 801.569 | 796.921 | 792.253 | 787.56 | 1125.7
m1 = 0.1529 | 817.425 | 812.819 | 808.212 | 803.59 | 798.952 | 794.294 | 789.61 | 1128.3
m1 = 0.173 | 819.579 | 814.984 | 810.383 | 805.772 | 801.145 | 796.5 | 791.829 | 1131.7
m1 = 0.1931 | 821.677 | 817.092 | 812.503 | 807.899 | 803.28 | 798.648 | 793.987 | 1135.5

[Br-].c1ccc([P+](c2ccccc2)(c2ccccc2)c2ccccc2)cc1 [tetraphenylphosphorane bromide] + CO
Settings | mass density, 283.15 K [kg/m3] | mass density, 288.15 K [kg/m3] | mass density, 293.15 K [kg/m3] | mass density, 298.15 K [kg/m3] | mass density, 303.15 K [kg/m3] | mass density, 308.15 K [kg/m3] | mass density, 313.15 K [kg/m3] | speed of sound, 298.15 K [m/s]
m1 = 0.0261 | 804.518 | 799.837 | 795.15 | 790.45 | 785.734 | 780.996 | 776.229 | 1106.5
m1 = 0.03452 | 805.776 | 801.095 | 796.408 | 791.716 | 787.003 | 782.267 | 777.504 | 1107.7
m1 = 0.04277 | 807.01 | 802.333 | 797.652 | 792.957 | 788.242 | 783.515 | 778.757 | 1109.1
m1 = 0.05089 | 808.208 | 803.532 | 798.856 | 794.167 | 789.459 | 784.728 | 779.972 | 1110.1
m1 = 0.05974 | – | – | – | – | – | – | – | 1111.4
m1 = 0.06826 | 810.754 | 806.084 | 801.412 | 796.727 | 792.025 | 787.301 | 782.553 | 1112.8
m1 = 0.08592 | 813.321 | 808.661 | 803.994 | 799.314 | 794.618 | 789.901 | 785.158 | 1115.3
m1 = 0.1039 | 815.894 | 811.236 | 806.575 | 801.901 | 797.21 | 792.499 | 787.763 | 1117.8
m1 = 0.1212 | 818.357 | 813.704 | 809.048 | 804.378 | 799.693 | 794.987 | 790.256 | 1119.9
m1 = 0.1384 | 820.799 | 816.147 | 811.492 | 806.831 | 802.152 | 797.452 | 792.728 | 1122.4
m1 = 0.1565 | 823.304 | 818.656 | 814.011 | 809.353 | 804.679 | 799.985 | 795.267 | 1124.7
m1 = 0.1747 | 825.843 | 821.2 | 816.556 | 811.905 | 807.237 | 802.548 | 797.837 | 1127
